# Experimental data: paper PMC7794297
# How the values were obtained:
# [1] = Spermine-templated DCL of building blocks 1-4; settings: spermine DCL of 1-4
# Experimental: Building blocks 2 and 3 equipped with carboxylate moieties to establish interactions with the protonated amine groups of the spermine were allowed to equilibrate at pH 7.8 and 6 °C (Fig. 8a). As expected in our control experiment, the major component in the absence of spermine was the linear tetramer (2)2(3)2. After the addition of spermine, the linear tetramer “decomposed” in order to form mainly the cyclic tetramer of (2)4, and the (3)2 dimer (Fig. 8a). As it was reported, several studies determined that the spermine was threaded through the macrocycle fixing the configuration to a highly symmetric stereoisomer of (2)4[36]. […] The precise composition of the DCL (with and without spermine), was assessed by measuring the relative peak area (RPA). Indeed, the normalized change of RPA was used to quantify the spermine influence in the outcome (Supplementary Fig. 42)[46]. The same template (spermine) was tested in our reference DCL of four building blocks (1–4) in the absence and presence of Secox (Fig. 8b). […] Additionally, two different templates were tested to confirm the absence of conflict between selenocystine and the templating effect. Spermidine and NADPH were introduced in our 4 building blocks DCL (1–4) in the absence and presence of Secox, leading to the amplification of different species and getting the same results as the non-catalyzed DCLs (Supplementary Figs. 44, 45, Supplementary Tables 7–10, and Supplementary Methods).
# The mixture was stabilized in 96 h. […] The mixture was stabilized after 24 h. […] It was stabilized in 24 h. […] DCL was equilibrated in 96 h. DCLs were performed without stirring at 6 °C and analyzed by HPLC-MS.
# [2] = Solubility under DCL conditions; type: physicochemical; settings: aqueous buffer; basic pH and 2.5% (v/v) DMSO
# From the text: reaction of compound 3 to (3)2 in the presence of selenocystine and DMSO. The accelerating role of DMSO wa s disca rded by running control experim ents containing up to 20% (v/v) DMSO, which is much larger than the amount of this co-solvent used in our standard conditions (2.5% (v/v) DMSO).
# 1) All the amino acids shown in Figure 3 have D-stereochemistry. I guess this is an error, please amend that. The same issue states for the structures in Figure 1.
# Thank you. It has been corrected.
# 2) For every mention to % of a reagent, especially in the methods part, it should be clearly stated if this is volume, weight of molar percent, and with respect to what.
# Thank you. It has been included.
# 3) Some of the disulfides formed in the libraries (i.e. (4)2) are expected to be poorly soluble in buffered water. […] When quantifying species in a mixture, solubility problems must be carefully […]
# 1.The main problem of the MS is that the authors only describe the rate enhancement by comparing if the reactions have reached equilibrium after 24 h or 96 h, as characterised by HPLC. It is shown for different ratios of the catalyst, but it doesn’t provide any quantitative measure of the rate acceleration. […] The authors should provide quantitative characterisation of the rate constants, starting with a simple homodimerisation of thiols, as it is done in ref. 15. […]
# [3] = biological target: bovine serum albumin (BSA) (Bos taurus, UniProt P02769); experiment: BSA-directed DCL of building blocks 1-4; parameters: purchased Roche; key to NC of RPA: normalized change of relative peak area (RPA) vs blank DCL
# glucose oxidase (GOx) [4] = biological target: T1, glucose oxidase (GOx) (Aspergillus niger, UniProt P13006); experiment: Glucose oxidase-directed DCL of building blocks 1-4; parameters: purchased Sigma Aldrich; unit not given here; settings: blank vs GOx template DCL; GOx 57 μM, Secox 5% mol, 24 h
# Experimental: The equilibration of the DCL was completed after 24 h (Fig. 9) and the oligomers were identified by HPLC-MS (Supplementary Figs. 4–20). The precise composition of the DCL (with and without GOx), was assessed by measuring the relative peak area (RPA). The normalized change of RPA was used to quantify the protein influence in the final DCL showing the amplification of the dimer of compound 4, that is (4)2 (Fig. 9b). Control experiments were set up to verify that the amplification of the dimer was not due to unspecific binding. Firstly the GOx was replaced by the bovine serum albumin (BSA). A stability study of BSA under the DCL conditions was performed using a fluorescence technique confirming the BSA stability in the DCL experiment (Supplementary Fig. 48)[50].
# The DCL was stabilized for 24 h at 6 °C. Then, GOx was removed by ultracentrifugation through an Amicon ultra-filter (100 KDa). HPLC analysis was performed.
# glucose oxidase (GOx) [5] = biological target: T1, glucose oxidase (GOx); experiment: Tryptophan fluorescence emission binding experiments with GOx; parameters: purchased Sigma Aldrich; settings: for Emmsion average / Normalized Fluorescence: Supplementary Figure 52 b
# [6] = NADPH-templated DCL of building blocks 1-4;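 further: values are means ± SD of DCC experiments run in triplicate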
# [7] = Spermidine-templated DCL of building blocks 1-4;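 further: Spermidine-templated dynamic combinatorial library, normalized change of RPA compared between Secox-free and Secox-containing libraries, DCC runs done in triplicate, values given as mean ± SD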
# T1 sequence (P13006 17-605): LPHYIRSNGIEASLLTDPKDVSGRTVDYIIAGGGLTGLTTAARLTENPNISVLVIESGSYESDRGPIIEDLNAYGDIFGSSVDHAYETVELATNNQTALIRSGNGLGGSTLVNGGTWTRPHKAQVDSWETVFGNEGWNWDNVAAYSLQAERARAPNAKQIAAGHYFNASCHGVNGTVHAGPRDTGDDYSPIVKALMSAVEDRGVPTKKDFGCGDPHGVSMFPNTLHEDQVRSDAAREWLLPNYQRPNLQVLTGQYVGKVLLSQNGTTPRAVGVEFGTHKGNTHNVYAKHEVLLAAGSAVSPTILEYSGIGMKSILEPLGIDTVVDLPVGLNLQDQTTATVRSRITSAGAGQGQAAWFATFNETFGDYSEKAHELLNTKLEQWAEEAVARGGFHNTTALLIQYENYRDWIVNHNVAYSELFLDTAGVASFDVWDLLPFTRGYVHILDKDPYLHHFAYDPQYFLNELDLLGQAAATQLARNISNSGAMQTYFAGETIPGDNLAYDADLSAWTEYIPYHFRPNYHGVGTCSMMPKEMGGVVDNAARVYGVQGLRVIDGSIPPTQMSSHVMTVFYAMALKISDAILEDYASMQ
# Chain of bovine serum albumin (BSA) (P02769 25-607): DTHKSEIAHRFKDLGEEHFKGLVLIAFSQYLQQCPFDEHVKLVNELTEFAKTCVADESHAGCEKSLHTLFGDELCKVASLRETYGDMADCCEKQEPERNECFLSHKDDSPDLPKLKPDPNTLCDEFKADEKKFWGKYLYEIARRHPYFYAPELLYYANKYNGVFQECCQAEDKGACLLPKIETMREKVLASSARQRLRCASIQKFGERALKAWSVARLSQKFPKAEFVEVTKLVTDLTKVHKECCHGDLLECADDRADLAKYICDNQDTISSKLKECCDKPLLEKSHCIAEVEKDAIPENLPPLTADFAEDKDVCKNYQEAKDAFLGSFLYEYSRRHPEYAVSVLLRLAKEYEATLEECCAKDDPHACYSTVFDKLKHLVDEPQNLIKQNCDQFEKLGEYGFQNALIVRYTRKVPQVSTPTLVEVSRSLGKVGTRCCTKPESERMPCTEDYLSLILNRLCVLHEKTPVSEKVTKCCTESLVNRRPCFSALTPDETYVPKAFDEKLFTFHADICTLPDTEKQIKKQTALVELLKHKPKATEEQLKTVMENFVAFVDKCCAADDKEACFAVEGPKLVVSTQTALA
smiles,measurement,setting,value
c1ccc(SSc2ccccc2)cc1 [(4)2],Normalized Change of RPA (NC),[1]; 0% Secox,"0,59"
same,Normalized Change of RPA (NC),[1]; 5% Secox,"0,53"
same,solubility,[2],≤ 2000 µM
same,amplification in the BSA-templated DCL,[3]; GOx replaced by BSA,did not amplify
same,NC of RPA,"[3]; blank vs BSA-DCL, BSA 57 µM, Secox 5% mol, 24 h","0,02"
same,NC of RPA,glucose oxidase (GOx) [4],"39,73"
same,Emmsion average,glucose oxidase (GOx) [5]; [(4)2] 40 μM,2487781
same,Normalized Fluorescence,glucose oxidase (GOx) [5]; [(4)2] 40 μM,0.09492
same,Emmsion average,glucose oxidase (GOx) [5]; [(4)2] 80 μM,2153387
same,Normalized Fluorescence,glucose oxidase (GOx) [5]; [(4)2] 80 μM,0.2166
same,Emmsion average,glucose oxidase (GOx) [5]; [(4)2] 400 μM,1756334
same,Normalized Fluorescence,glucose oxidase (GOx) [5]; [(4)2] 400 μM,0.361
same,Emmsion average,glucose oxidase (GOx) [5]; [(4)2] 2000 μM,1449655
same,Normalized Fluorescence,glucose oxidase (GOx) [5]; [(4)2] 2000 μM,0.4726
same,Emmsion average,glucose oxidase (GOx) [5]; [(4)2] 4000 μM,1064446
same,Normalized Fluorescence,glucose oxidase (GOx) [5]; [(4)2] 4000 μM,0.6127
same,Emmsion average,glucose oxidase (GOx) [5]; [(4)2] 8000 μM,516610
same,Normalized Fluorescence,glucose oxidase (GOx) [5]; [(4)2] 8000 μM,0.8121
same,Emmsion average,glucose oxidase (GOx) [5]; [(4)2] 16000 μM,236911
same,Normalized Fluorescence,glucose oxidase (GOx) [5]; [(4)2] 16000 μM,0.9138
same,Kd,"glucose oxidase (GOx) [5]; apparent dissociation constant, GOx 0.8 µM, Tris pH 7.8, 5% DMSO, 10 °C, read-out: Kd'",110 ± 10 µM
same,Normalized Change of RPA (NC),[6]; 0% Secox,"-1,00"
same,Normalized Change of RPA (NC),[6]; 5% Secox,"-1,00"
same,Normalized Change of RPA (NC),[7]; 0% Secox,"-0,49"
same,Normalized Change of RPA (NC),[7]; 5% Secox,"-0,50"
